Among the data in patent US20050003007A1, “Method of sterilization of polymeric microparticles” (priority 2003, published 2005) are vision values, retold here.

This test has as its system retinitis pigmentosa. Put plainly: Subconjunctival injection of tazarotene microsphere suspension into a patient suffering from retinitis pigmentosa. The format is in vivo. Conditions: tazarotene 1 mg in poly(lactide-co-glycolide) microsphere suspension, for the duration of treatment. The method, then: A dose of tazarotene (1 mg) contained in the poly(lactide-co-glycolide) microsphere suspension of Example containing 1 is injected subconjunctivally into a patient suffering from retinitis pigmentosa.

As for `CCOC(=O)c1ccc(C#Cc2ccc3c(c2)C(C)(C)CCS3)nc1` [tazarotene], the vision entry is listed as “Maintenance of vision or a slowing of the progression of vision loss”.
